Converted amounts (≈) assume the structure as drawn. Starred links: 1 amine or outer side, 2 acyl side, 3 side chain; linkers in the order of their positions; H or OH if unused. Non-standard residues stand in square brackets, D forms with d. Residues, ends and D or L forms follow the SMILES beside them. No end group written: not given here. *: point of attachment. X1 = N=c1ccc2c(-c3ccccc3C(=O)*)c3ccc(N)c(S(=O)(=O)O)c3oc-2c1S(=O)(=O)O; NMeGABA = CN(CCCC(=O)[*:2])[*:1]
How the values were obtained:
[1] = system: Acinetobacter baumanii (CCM 2355); type: cell-based; details: A. baumanii (Gram-negative); Mueller-Hinton broth/PBS 1:1, 35 °C, OD 625 nm every 60 min for 20 h; MIC as molar concentration of PEP; mean of at least three independent experiments
Description: (§1) The antibacterial properties of HPMA-PEP constructs were tested against Acinetobacter baumanii (CCM 2355), Escherichia coli (CCM 4517), Staphylococcus epidermidis (CCM 2124), and Staphylococcus aureus (CCM 4516) (Czech Collection of Microorganisms, Brno, Czech Republic) in vitro. A single colony of the test microorganism was transferred into 5 mL of sterile broth (Luria-Bertani medium, Sigma) and cultivated overnight at 37 °C to prepare a bacterial test suspension in a double-concentrated Mueller-Hinton broth at a density equivalent to a 0.5 McFarland standard. Desired weight of lyophilized PEP or polymer-PEP was resuspended in sterile PBS and a concentration series was prepared. The bacterial suspension was then mixed with different concentrations of the PEP or polymer-PEP construct diluted in 1:1 in PBS and cultured at 35 °C. The bacterial growth was measured spectrophotometrically at 625 nm every 60 min for 20 h using an EON microplate spectrophotometer (Agilent Technologies, Santa Clara, CA, USA).
(§2) The MIC was determined as the lowest concentration of PEP or polymer-PEP construct without observable bacterial growth. MIC was calculated as the molar concentration of PEP. […] If the bacteria were absent after 24 h of incubation, it was termed MBC.

[2] = system: Staphylococcus epidermidis (CCM 2124); type: cell-based; details: S. epidermidis (Gram-positive); Mueller-Hinton broth/PBS 1:1, 35 °C, OD 625 nm every 60 min for 20 h; MIC as molar concentration of PEP; mean of at least three independent experiments
Description: as §1, §2

[3] = system: Staphylococcus aureus (CCM 4516); type: cell-based; details: S. aureus (Gram-positive); Mueller-Hinton broth/PBS 1:1, 35 °C, OD 625 nm every 60 min for 20 h; MIC as molar concentration of PEP; mean of at least three independent experiments
Description: as §1, §2

[4] = system: Escherichia coli (CCM 4517); type: cell-based; details: E. coli (Gram-negative); Mueller-Hinton broth/PBS 1:1, 35 °C, OD 625 nm every 60 min for 20 h; MIC as molar concentration of PEP; mean of at least three independent experiments
Description: as §1, §2

E. coli [5] = assay: Fluorescent microscopy of labeled peptide/constructs with bacteria; type: cell-based, Escherichia coli; details: labeled sample added at amount corresponding to its MIC, spinning disc confocal, ex 488 nm, em 525 nm
Description: The densities of the fresh overnight bacterial cultures were adjusted to the 0.5 McFarland standard, and 100 µL was placed in a sterile 96-well plate. The plates were incubated at room temperature for 2 h before the amount of fluorescently labeled F-PEP or F-P-PEP construct corresponding to its MIC was added to the appropriate wells. Images were captured immediately using a spinning disc confocal microscope (Andor xD revolution) on the Olympus IX81 platform and analyzed with iQ3 software, the excitation wavelength was 488 nm and the emission wavelength was 525 nm.

S. aureus [6] = details: labeled sample added at amount corresponding to its MIC, spinning disc confocal, ex 488 nm, em 525 nm
Description: The densities of the fresh overnight bacterial cultures were adjusted to the 0.5 McFarland standard, and 100 µL was placed in a sterile 96-well plate. […] Images were captured immediately using a spinning disc confocal microscope (Andor xD revolution) on the Olympus IX81 platform and analyzed with iQ3 software, the excitation wavelength was 488 nm and the emission wavelength was 525 nm.

cathepsin B = cathepsin B (Homo sapiens, UniProt P07858); type: in vitro ADME
Description: The enzymatic activity of cathepsin B was probed immediately before the release measurements as described previously. The enzymolysis was monitored by HPLC and the rate of PEP release was calculated from the area of the corresponding polymer peaks from the fluorescent detector (excitation 280 nm, emission 350 nm of Trp in PEP). The spontaneous hydrolysis and release of PEP were measured by HPLC in two different PBS buffers to mimic the bloodstream, pH 7.4 and pH 5.5, at 37 °C.

E. coli [7] = assay: Transmission electron microscopy (TEM) of treated bacteria; type: cell-based, Escherichia coli; details: 2 × MIC, 2.5 h of incubation, negative staining
Description: (§3) Bacteria in the exponential growth phase were mixed with the PEP or polymer-PEP constructs at a concentration equivalent to 2×MIC. After 2.5 h of incubation, 10 µL of the suspension was placed on a copper carbon-coated electron microscopic copper grid (Sigma Aldrich, Saint Louis, MO, USA) and left to adhere for 10 min. Then, the grid was washed twice with dH2O and stained with 0.8% sodium silicotungstate (Agar Scientific, Stansted, UK), pH 7.4, for 40 s. The samples were analyzed using a JEOL JEM-1010 instrument (JEOL Ltd., Tokyo, Japan) with an SIS MegaView III digital camera (Soft Imaging Systems) at acceleration voltage 80 kV and AnalySIS Software 2.0.

S. aureus [8] = assay: as above; type: cell-based, Staphylococcus aureus; details: 2×MIC, 2.5 h of incubation, negative staining
Description: as §3

Row | Molecule | MIC [1] | MIC [2] | MIC [3] | MIC [4] | Interaction / accumulation on bacterial cells (fluorescence microscopy) (E. coli [5]) | Interaction / accumulation on bacterial cells (fluorescence microscopy) (S. aureus [6]) | PEP release in contact with cathepsin B (cathepsin B) | Effect on bacterial cell morphology (TEM) (E. coli [7]) | Effect on bacterial cell morphology (TEM) (S. aureus [8])
1 | CC[C@H](C)[C@H](NC(=O)[C@H](CCCCN)NC(=O)[C@H](CCCCN)NC(=O)[C@H](CC(C)C)NC(=O)[C@H](CC(C)C)NC(=O)[C@H](CCCCN)NC(=O)[C@H](CCSC)NC(=O)[C@H](Cc1c[nH]c2ccccc12)NC(=O)[C@H](CCCCN)NC(=O)CNC(=O)CCCN(C)C(=O)c1ccccc1-c1c2ccc(=N)c(S(=O)(=O)O)c-2oc2c(S(=O)(=O)O)c(N)ccc12)C(=O)N[C@@H](CC(C)C)C(=O)N[C@@H](CCCCN)C(N)=O [F-PEP] (X1-[NMeGABA]GKWMKLLKKILK-NH2) | 36.5 µM (≈ 75.1 µg/mL) | 29.2 µM (≈ 60.1 µg/mL) | 72.9 µM (≈ 150 µg/mL) | 18.2 µM (≈ 37.4 µg/mL) | accumulation of F-PEP and F-P-PEP on the bacterial cells | – | – | – | –
2 | GKWMKLLKKILK-NH2 [PEP] | 5 µM | 3.4 µM | 10 µM | 5 µM | – | – | – | – | –
3 | p(HPMA-co-Ma-β-Ala-ATTO-488-co-Ma-β-Ala-DBCO-azide-PEP) [F-P-PEP, fluorescently labeled non-cleavable polymer-PEP construct] | 38.7 µM | 77.5 µM | – | 77.5 µM | accumulation of F-PEP and F-P-PEP on the bacterial cells | considerably less F-P-PEP accumulated on S. aureus | – | – | –
4 | p(HPMA-co-Ma-β-Ala-DBCO-ValCit-PEP) [P-ValCit-PEP, enzymatically cleavable polymer-PEP construct, ValCit spacer] | 16.8 µM | – | – | 134 µM | – | – | not releasing the PEP | – | –
5 | p(HPMA-co-Ma-β-Ala-DBCO-azide-PEP) [P-PEP, non-cleavable polymer-PEP construct, control system] | 9.3 µM | 14.8 µM | – | 74.1 µM | – | – | – | induced cell morphological changes | induced cell morphological changes, cell wall disruption and leakage of the cytoplasm

Reference: PMC9960778, “Polymer-Antimicrobial Peptide Constructs with Tailored Drug-Release Behavior” (Pharmaceutics, 2023)
